{
  "source": "patent US20200064357A1",
  "about": "“METHODS FOR DETERMINING AND MONITORING GASTROINTESTINAL INFLAMMATION” (Protagonist Therapeutics, Inc., priority 2016, published 2020)",
  "key": {"Sprague-Dawley rats [1]": {"test_system": "Sprague-Dawley rats", "test": "Biomarkers in colon of TNBS-induced acute colitis rats (Example E1)", "assay_type": "in vivo, rat", "source_text": "The effect of treatment with peptide inhibitors of IL23R on inflammatory markers associated with IL23 signaling was examined in a rat model of acute colitis. Acute colitis was induced in Sprague-Dawley rats by a single intra-rectal instillation of 2,4,6-Trinitrobenzenesulfonic acid (TNBS) followed by efficacy analysis at day seven. Pharmacodynamic (PD) biomarkers were examined using enzyme-linked immunosorbent assay (ELISA), quantitative reverse transcription polymerase chain reaction, or immunohistochemistry analysis of colon, feces, or serum samples obtained from colitic rats treated with Peptide 993, Peptide 1185, or Peptide 980.\nAcute colitis was induced by providing 7-week-old female Sprague-Dawley rats with various dosages of 64 mg/kg or 48 mg/kg of TNBS in 50% ethanol (TNBS/ethanol) administered intrarectally at Day 0. Peptide inhibitors were administered orally two or three times a day at various dosages and were provided in drinking water at various dosages, for 8 days starting approximately 24 hours (Day −1) prior TNBS inoculation.\nLevels of a number of inflammatory biomarkers were examined in the colons. The distal colon tissue samples, designated for protein expression analysis, were flash frozen after collection. For protein extraction, the samples were thawed, weighed and homogenized in the extraction buffer (PBS pH 7.2 supplemented with Protease Inhibitors, 3× volume:weight). The homogenates were centrifuged at 13 krpm at 4° C. for 15 minutes, a total of two times to remove the debris. The supernatants were saved in multiple aliquots in −80° C. and subsequently used for protein expression analysis on ELISA. The total protein in each sample was quantified using BCA assay. MPO, IL-10, IL-6, IL-17A and IL-22 biomarker protein expression in the distal colon samples was analyzed using commercially available rat ELISA kits."}, "Sprague-Dawley rats [2]": {"test_system": "Sprague-Dawley rats", "test": "miR-223-3p expression in distal colon and serum, TNBS rat colitis model (Example E3)", "assay_type": "in vivo", "conditions": "31 mg/kg/day, vs vehicle group", "method": "Animals from the sham group (without TNBS exposure), the vehicle group (exposed to TNBS and treated with vehicle only) and the group treated with Peptide 993 (exposed to TNBS and treated with Peptide 993 at 31 mg/kg/day) were subjected for gene expression and miroRNA analysis\nFor extraction of microRNA from distal colon homogenate, the RNeasy Plus Mini Kit and the RNeasy MinElute Cleanup Kit (Qiagen) were used. For extraction of microRNA from serum, miRNeasy Serum/Plasma Kit (Qiagen) was used. To verify uniformity of microRNA extraction, a synthetic microRNA cel-miR-39-3p, at a fixed concentration, was spiked into both distal colon homogenates and serum samples. The microRNAs purified from distal colon and serum was used in the Advanced miRNA cDNA Synthesis Kit (Applied Biosystems) to obtain cDNA templates for the quantative real time PCR. The expression of miR-223-3p, a microRNA known to negatively regulate CLDN8 gene expression, was measured using TaqMan Advanced miRNA assay (Applied Biosystems). The endogenous control miR-16-5p was used for normalization in the distal colon, and the endogenous control miR-24-3p was used for normalization in the serum. Relative expression of miR-223-3p was calculated using the normalized Ct values. […]"}, "[3]": {"conditions": "protein by ELISA, vs vehicle treated controls, Peptide 993 65 mg/kg/day"}, "[4]": {"conditions": "protein by ELISA, vs vehicle treated controls, Peptide 993 65 mg/kg/day, Peptide 980 37 mg/kg/day"}},
  "data": [
    {"smiles": "CC(=O)NC(CCCNC(=N)N)C(=O)NC1CCSCC(C(=O)NC(Cc2ccc(OCCN)cc2)C(=O)NC(Cc2ccc3ccccc3c2)C(=O)NC2(C(=O)NC(CCC(=O)O)C(=O)NC(CC(N)=O)C(=O)NC(CC(N)=O)C(N)=O)CCOCC2)NC(=O)C(CCC(N)=O)NC(=O)C(Cc2c[nH]c3ccccc23)NC(=O)C(C(C)O)NC(=O)C(CCC(N)=O)NC1=O", "note": "(centres unmarked) [Peptide 993, Ac-[(D)-Arg]-cyclo[[Abu]-QTWQC]-[Phe[4-(2-aminoethoxy)]]-[2-Nal]-[4-amino-4-carboxy-tetrahydropyran]-ENN-NH2]", "values": [
      {"measurement": "IL-1β gene expression level, distal colon", "setting": "Sprague-Dawley rats [1]; data not shown, trend similar to the protein reduction", "result": "but not IL-1β"},
      {"measurement": "IL-1β level in colon", "setting": "Sprague-Dawley rats [1]; [3]", "result": "reduced"},
      {"measurement": "IL-6 level in colon", "setting": "Sprague-Dawley rats [1]; [3]", "result": "reduced"},
      {"measurement": "IL-17A level in colon", "setting": "Sprague-Dawley rats [1]; [3]", "result": "reduced"},
      {"measurement": "IL-22 level in colon", "setting": "Sprague-Dawley rats [1]; [4]", "result": "reduced"},
      {"measurement": "MPO level in colon", "setting": "Sprague-Dawley rats [1]; [4]", "result": "reduced"},
      {"measurement": "miR-223-3p expression in the distal colon", "setting": "Sprague-Dawley rats [2]; normalized to miR-16-5p", "result": "not statistically significant, however there was a marked reduction in the average expression of the group"},
      {"measurement": "miR-223-3p expression in serum", "setting": "Sprague-Dawley rats [2]; normalized to miR-24-3p", "result": "no apparent change"}
    ]}
  ]
}
